The source of these data is US5232912A, “Anticoagulant peptides” (Merrell Dow Pharmaceuticals Inc., priority 1992, dated 1993).

Molecules are shown by their SMILES.

This experiment deals with T1, bovine thrombin (Bos taurus, UniProt P00735).
T1 construct: A bovine thrombin solution (50 ul; 0.2 pmol; Sigma); purchased Sigma
As to the kind of experiment: Fibrin clot inhibition assay. In kind it is biochemical. Set-up: unit not given here. The note with it: bovine thrombin 0.2 pmol, 10 minute incubation at 24° C., 1:10 diluted human plasma, turbidity (A405); two-fold delay of fibrin clot present at 15 minutes in the control well. As to the method:
Human plasma was collected in EDTA (final concentration=0.1%) from a healthy volunteer who had fasted for 12 hours. The plasma was immediately sterilized by passing it through a 0.2 u filter membrane (Gelman) then aliquoted into 1 ml portions and stored at -20° C. In all assays, unsulfated Nα-acetylhirudin 45-65 was included as a control. A bovine thrombin solution (50 ul; 0.2 pmol; Sigma) was added to the wells of a 96 well microtiter plate (Falcon) containing 50 ul of a solution and a 10 minute incubation at 24° C., 100 ul of 1:10 diluted human plasma in 0.12M sodium chloride, 0.01M sodium phosphate, 0.01% sodium azide, 0.1% bovine serum albumin (pH 7.4) was added. The mixture was agitated for 20 seconds and the turbidity (A405) of the solution was measured at 5 minute intervals by an autoreader (Bio-Tek Model EL 309). Reported is the ability of a 5 uM concentration of peptide to delay two-fold the amount of fibrin clot present at 15 minutes in the control well.
Consider `CC[C@H](C)[C@H](NC(=O)[C@@H]1CCCN1C(=O)[C@H](CCC(=O)O)NC(=O)[C@H](Cc1ccc(O)cc1)NC(=O)CCC(=O)O)C(=O)N1CCCC[C@H]1C(=O)N[C@@H](CCC(=O)O)C(=O)N[C@@H](CCC(=O)O)C(=O)N[C@@H](C)C(=O)N[C@@H](CC1CCCCC1)C(=O)N[C@H](CCC(=O)O)C(=O)O` [Example 1, Suc-Tyr-Glu-Pro-Ile-Pip-Glu-Glu-Ala-Cha-D-Glu-OH], for which the “Fibrin Clot Inhibition” value was 0.88. With `CC[C@H](C)[C@H](NC(=O)[C@@H]1Cc2ccccc2CN1C(=O)[C@H](CCC(=O)O)NC(=O)[C@H](Cc1ccc(O)cc1)NC(=O)CCC(=O)O)C(=O)N1CCC[C@H]1C(=O)N[C@@H](CCC(=O)O)C(=O)N[C@@H](CCC(=O)O)C(=O)N[C@@H](C)C(=O)N[C@@H](CC1CCCCC1)C(=O)N[C@H](CCC(=O)O)C(=O)O` [Example 5, Suc-Tyr-Glu-Tiq-Ile-Pro-Glu-Glu-Ala-Cha-D-Glu-OH] the figure was 0.82; with `CC[C@H](C)[C@H](NC(=O)[C@@H]1CCCN1C(=O)[C@H](CCC(=O)O)NC(=O)[C@H](Cc1ccc(O)cc1)NC(=O)CCC(=O)O)C(=O)N1Cc2ccccc2C[C@H]1C(=O)N[C@@H](CCC(=O)O)C(=O)N[C@@H](CCC(=O)O)C(=O)N[C@@H](C)C(=O)N[C@@H](CC1CCCCC1)C(=O)N[C@H](CCC(=O)O)C(=O)O` [Example 6, Suc-Tyr-Glu-Pro-Ile-Tiq-Glu-Glu-Ala-Cha-D-Glu-OH], 0.63; with `CC[C@H](C)[C@H](NC(=O)[C@@H]1CCCCN1C(=O)[C@H](CCC(=O)O)NC(=O)[C@H](Cc1ccc(O)cc1)NC(=O)CCC(=O)O)C(=O)N1CCC[C@H]1C(=O)N[C@@H](CCC(=O)O)C(=O)N[C@@H](CCC(=O)O)C(=O)N[C@@H](C)C(=O)N[C@@H](CC1CCCCC1)C(=O)N[C@H](CCC(=O)O)C(=O)O` [Example 2, Suc-Tyr-Glu-Pip-Ile-Pro-Glu-Glu-Ala-Cha-D-Glu-OH], 1.9.
